Measurements reported in ChEMBL document CHEMBL1201862, “PubChem BioAssay data set” (2004).
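1) Cells in 96-well plates. 2) Compound, 48 h, 5 concentrations. 3) Linear interpolation between surrounding doses. 4) Unreached endpoint = highest concentration. GI50 is the concentration that inhibits growth by half.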 Activity calls are given as the source filed them. Cut-off read from the data, not from the text of the source: active = GI50 up to about 1.1 µM and inactive = higher.

Experiments:
Assay in all cases: DTP human tumour cell line panel, 48 h
[1] = test system: XF498
[2] = test system: SNB-75
[3] = test system: HCC 2998
[4] = test system: SK-OV-3
[5] = test system: M14
[6] = test system: NCI-H522
[7] = test system: SF-539
[8] = test system: UO-31
[9] = test system: COLO 205
[10] = test system: DMS-114
[11] = test system: SF-295
[12] = test system: SK-MEL-28
[13] = test system: DLD-1
[14] = test system: SK-MEL-2
[15] = test system: RPMI-8226
[16] = test system: SK-MEL-5
[17] = test system: NCI-H226
[18] = test system: SN12C
[19] = test system: SNB-78
[20] = test system: 786-0
[21] = test system: HOP-92
[22] = test system: DMS-273
[23] = test system: IGROV-1
[24] = test system: OVCAR-8
[25] = test system: HCT-15
[26] = test system: OVCAR-4
[27] = test system: NCI-H460
[28] = test system: OVCAR-3
[29] = test system: A549
[30] = test system: HCT-116
[31] = test system: U-251
[32] = test system: HOP-18
[33] = test system: TK-10
[34] = test system: LXFL 529
[35] = test system: SNB-19
[36] = test system: HT-29
[37] = test system: MOLT-4
[38] = test system: SW-620
[39] = test system: M19-MEL
[40] = test system: UACC-257
[41] = test system: NCI-H23
[42] = test system: KM12
[43] = test system: RXF 631
[44] = test system: SR
[45] = test system: OVCAR-5
[46] = test system: Malme-3M
[47] = test system: ACHN
[48] = test system: CAKI-1
[49] = test system: UACC-62
[50] = test system: KM-20L2
[51] = test system: K562
[52] = test system: EKVX
[53] = test system: HOP-62
[54] = test system: HL-60
[55] = test system: CCRF-CEM
[56] = test system: A498
[57] = test system: LOX IMVI
[58] = test system: SF-268
[59] = test system: RXF 393

Measured: GI50

CC(C)C1CC[C@@H](C)C[C@@]1(O)CC(N)=O (some centres not stated)
> 100 µM: [25]
active: [1] 0.0344 µM | [21] < 0.01 µM
inactive: [2] 66.2 µM | [3] > 100 µM | [4] > 100 µM | [5] > 100 µM | [6] > 100 µM | [7] > 100 µM | [8] > 100 µM | [9] > 100 µM | [10] > 100 µM | [11] > 100 µM | [12] > 100 µM | [13] > 100 µM | [14] > 100 µM | [15] > 100 µM | [16] > 100 µM | [17] > 100 µM | [18] > 100 µM | [19] > 100 µM | [20] > 100 µM | [22] > 100 µM | [23] > 100 µM | [24] > 100 µM | [26] > 100 µM | [27] > 100 µM | [28] > 100 µM | [29] > 100 µM | [30] > 100 µM | [31] > 100 µM | [32] > 100 µM | [33] > 100 µM | [34] > 100 µM | [35] > 100 µM | [36] > 100 µM | [37] > 100 µM | [38] > 100 µM | [39] > 100 µM | [40] > 100 µM | [41] > 100 µM | [42] > 100 µM | [43] > 100 µM | [44] > 100 µM | [45] > 100 µM | [46] > 100 µM | [47] > 100 µM | [48] > 100 µM | [49] > 100 µM | [50] > 100 µM | [51] > 100 µM | [52] > 100 µM

O=C(Nc1ccc(Cl)cc1Cl)C(=O)C(C(=O)c1ccncc1)C1OC(=O)c2ccccc21 (configuration not stated)
> 100 µM: [25]
inactive: [1] > 100 µM | [2] > 100 µM | [3] > 100 µM | [4] > 100 µM | [5] > 100 µM | [6] > 100 µM | [7] > 100 µM | [8] > 100 µM | [9] > 100 µM | [10] > 100 µM | [11] > 100 µM | [12] > 100 µM | [13] > 100 µM | [15] > 100 µM | [16] > 100 µM | [17] > 100 µM | [18] > 100 µM | [53] > 100 µM | [19] > 100 µM | [20] > 100 µM | [21] > 100 µM | [23] > 100 µM | [24] > 100 µM | [54] > 100 µM | [26] > 100 µM | [55] > 100 µM | [27] > 100 µM | [28] > 100 µM | [29] > 100 µM | [30] > 100 µM | [31] > 100 µM | [56] > 100 µM | [32] > 100 µM | [33] > 100 µM | [34] > 100 µM | [35] > 100 µM | [36] > 100 µM | [37] > 100 µM | [38] > 100 µM | [39] > 100 µM | [40] > 100 µM | [41] > 100 µM | [42] > 100 µM | [57] > 100 µM | [43] > 100 µM | [44] > 100 µM | [45] > 100 µM | [58] > 100 µM | [46] > 100 µM | [47] > 100 µM | [48] > 100 µM | [49] > 100 µM | [50] > 100 µM | [59] > 100 µM | [51] > 100 µM | [52] > 100 µM

COc1cc(C(=O)C(CO)Oc2ccccc2OC)ccc1O (configuration not stated)
inactive: [2] 67 µM | [3] > 100 µM | [4] > 100 µM | [5] > 100 µM | [6] > 100 µM | [7] > 100 µM | [8] > 100 µM | [9] > 100 µM | [10] > 100 µM | [11] > 100 µM | [12] > 100 µM | [13] > 100 µM | [16] > 100 µM | [17] > 100 µM | [18] > 100 µM | [53] > 100 µM | [19] > 100 µM | [20] > 100 µM | [21] 88.7 µM | [22] > 100 µM | [23] > 100 µM | [24] > 100 µM | [54] > 100 µM | [26] > 100 µM | [55] > 100 µM | [27] > 100 µM | [28] > 100 µM | [29] > 100 µM | [30] > 100 µM | [31] > 100 µM | [32] > 100 µM | [33] > 100 µM | [34] > 100 µM | [35] > 100 µM | [36] > 100 µM | [37] > 100 µM | [38] > 100 µM | [39] > 100 µM | [40] > 100 µM | [41] > 100 µM | [42] > 100 µM | [43] > 100 µM | [44] 34.9 µM | [45] > 100 µM | [58] > 100 µM | [46] > 100 µM | [47] > 100 µM | [48] > 100 µM | [49] > 100 µM | [50] > 100 µM | [51] 42.1 µM | [52] > 100 µM
> 100 µM: [25]
